Structures can show the parent of a compound that is named as a salt. Where two headings read alike, the source gives them in different places.

The source of these data is US20240239788A1, “SMALL MOLECULE INHIBITORS OF KRAS G12D MUTANT” (Merck Sharp & Dohme LLC, priority 2021, published 2024).

Test [1] addresses KRAS protein containing G12D mutation (Homo sapiens (Human), UniProt P01116, G12D). Briefly: SOS-catalyzed nucleotide exchange assay (GNE), TR-FRET. It counts as biochemical. The conditions noted are these: biotinylated KRAS G12D, SOS and GTP, 60-minute incubation. As to the method: Compounds are added to this complex and then after a 60-minute incubation time the mixture is treated with SOS and unlabeled GTP. Small molecule inhibitors stabilize the Bodipy-GDP complex whereas the untreated protein rapidly exchanges Bodipy-GDP for unlabeled GTP resulting in reduced TR-FRET signal.
This solution is referred to as biotinylated KRAS G12D stock solution.
In general terms: TR-FRET usually uses a lanthanide donor and a delayed reading to cut background.

In test [2] the test system is AsPC-1 cells containing homozygous KRAS-G12D activating mutation. Nature of the test: Cellular phospho-ERK assay with 10% FBS (Examples 107a-256). It counts as cell-based. As to the method:
5% CO2 for 2 hours. […] Assay plates were read on a EnVision Multimode Plate Reader (PerkinElmer) and the ratio of p-Erk vs total Erk in each well was used as the final readout.

Setting [3] is: read-out: IC50 (nM) pERK (cell with FBS 10%), AsPC-1 cells, 10% fetal bovine serum, 2 hours, ratio of p-Erk vs total Erk.

On to “2,2,2-trifluoroacetaldehyde-6-(6-chloro-8-fluoro-2-(((2R,7aS)-2-fluorotetrahydro-1H-pyrrolizin-7a(5H)-yl)methoxy)-4-((1S,5R)-1-methyl-3,8-diazabicyclo[3.2.1]octan-3-yl)quinazolin-7-yl)-4-methyl-5-(trifluoromethyl)pyridin-2-amine (1/1) [Ex. 238b]”, for which the IC50 in test [1] was found to be 2710 nM; in test [2] (setting [3]), 21100 nM.
As to `CC(Oc1nc(N2C[C@H]3CC[C@@](C)(C2)N3)c2cc(F)c(-c3cc(O)cc4cccc(Cl)c34)c(F)c2n1)[C@]1(C)CCCN1` (mixture of isomers) [Ex. 164, 5-chloro-4-(6,8-difluoro-4-((1S,5R)-1-methyl-3,8-diaza-bicyclo-[3.2.1]octan-3-yl)-2-(1-((S)-2-methyl-pyrrolidin-2-yl)ethoxy)-quinazolin-7-yl)naph-thalen-2-ol, TFA], the IC50 in test [1] was 562 nM; in test [2] (Homo sapiens, ASPC1, 2 h, read-out: IC50 (nM) pERK (cell with FBS 10%), AsPC-1 cells, 10% fetal bovine serum, 2 hours, ratio of p-Erk vs total Erk), 29300 nM.
Turning to `C[C@]12CCC(CN(c3nc(OC[C@@]45CCCN4C[C@H](F)C5)nc4c(F)c(-c5cc(O)cc6cccc(C(F)F)c56)c(F)cc34)C1)N2` (racemic) [Ex. 181a, rac-4-(6,8-difluoro-2-(((2R,7aS)-2-fluoro-tetrahydro-1H-pyrrol-izin-7a(5H)-yl)meth-oxy)-4-((18,5R)-1-methyl-3,8-diaza-bicyclo[3.2.1]octan-3-yl)quinazolin-7-yl)-5-(difluoromethyl)naph-thalen-2-ol], the IC50 in test [2] (setting [3]) was found to be 122 nM.
Still for that read-out and setting: for `C[C@]12CCC(CN(c3nc(OC[C@@]45CCCN4C[C@H](F)C5)nc4c(F)c(-c5cc(O)cc6cccc(C(F)F)c56)c(F)cc34)C1)N2` (racemic) [Ex. 181b, rac-4-(6,8-difluoro-2-(((2R,7aS)-2-fluoro-tetrahydro-1H-pyrrol-izin-7a(5H)-yl)meth-oxy)-4-((1S,5R)-1-methyl-3,8-diaza-bicyclo[3.2.1]octan-3-yl)quinazolin-7-yl)-5-(difluoromethyl)naph-thalen-2-ol] the value was 2660 nM.
For the compound `Cc1nc(N)cc(-c2c(Cl)cc3c(N4C[C@H]5CC[C@@](C)(C4)N5)nc(OCC4(CN5CCOCC5)CC4)nc3c2F)c1C(F)(F)F` [Ex. 138, 4-(6-chloro-8-fluoro-4-((1S,5R)-1-methyl-3,8-diazabicyclo[3.2.1]octan-3-yl)-2-((1-(morpholinomethyl)cyclopropyl)methoxy)quinazolin-7-yl)-6-methyl-5-(trifluorometh-yl)pyridin-2-amine], the IC50 in test [1] worked out at 361 nM.
Same read-out and setting: the result for `Cc1cc(N)nc(-c2c(Cl)cc3c(N4CC5CCC(C4)N5)nc(OC[C@@]45CCCN4[C@H](CO)CC5)nc3c2F)c1C(F)(F)F` [Ex. 150] reads 2.04 nM; that for `C[C@]12CC[C@H](CN(c3nc(OC[C@@]45CCCN4C[C@H](F)C5)nc4c(F)c(-c5cc(F)cc6cccc(Cl)c56)c(F)cc34)C1)N2` [Ex. 158, 7-(8-chloro-3-fluoro-naphthalen-1-yl)-6,8-difluoro-2-(((2R,7aS)-2-fluorotetrahydro-1H-pyrrolizin-7a(5H)-yl)-methoxy)-4-((1S,5R)-1-methyl-3,8-diaza-bicyclo[3.2.1]octan-3-yl)quinazoline], 1280 nM.
On the same count and under the same terms, for `CN1[C@@H]2CC[C@H]1CN(c1nc(OC[C@@]34CCCN3C[C@H](F)C4)nc3c(F)c(-c4cc(O)cc5cccc(Cl)c45)c(F)cc13)C2` [Ex. 161, 5-chloro-4-(6,8-difluoro-2-(((2R,7aS)-2-fluorotetrahydro-1H-pyrrolizin-7a(5H)-yl)-methoxy)-4-((1R,5S)-8-methyl-3,8-diaza-bicyclo[3.2.1]octan-3-yl)quinazolin-7-yl)-naphthalen-2-ol] the value was 591 nM; for `Cc1cc(-c2c(Cl)cc3c(N4C[C@H]5CC[C@@H](C4)N5)nc(OC[C@@]45CCCN4C[C@H](F)C5)nc3c2F)nc(N)c1OC(F)F` [Ex. 168, 6-(4-((1R,5S)-3,8-diazabicyclo[3.2.1]-octan-3-yl)-6-chloro-8-fluoro-2-(((2R,7aS)-2-fluorotetrahydro-1H-pyrrolizin-7a(5H)-yl)-methoxy)quinazolin-7-yl)-3-(difluorometh-oxy)-4-methylpyridin-2-amine], 1310 nM.
Still for that read-out and setting: for `Cc1nc(N)c(C)c(-c2c(F)cc3c(N4C[C@H]5CC[C@@H](C4)N5)nc(OC[C@@]45CCCN4C[C@H](F)C5)nc3c2F)c1C1CC1` [Ex. 198, 4-(4-((1R,5S)-3,8-diazabicyclo[3.2.1]-octan-3-yl)-6,8-difluoro-2-(((2R,7aS)-2-fluorotetrahydro-1H-pyrrolizin-7a(5H)-yl)-methoxy)quinazolin-7-yl)-5-cyclopropyl-3,6-dimethylpyridin-2-amine] the value was 1790 nM; for `C[C@]12CC[C@H](CN(c3nc(OC[C@@H]4CCCN4CCO)nc4c(F)c(-c5cc(O)cc6ccccc56)c(F)cc34)C1)N2` [Ex. 225, 4-(6,8-difluoro-2-(((S)-1-(2-hydroxyethyl)pyrrolidin-2-yl)methoxy)-4-((1S,5R)-1-methyl-3,8-diazabicyclo[3.2.1]octan-3-yl)quinazolin-7-yl)naphthalen-2-ol], 69.8 nM.
As to `CN(CC(C)(C)O)CC1(COc2nc(N3C[C@H]4CC[C@@](C)(C3)N4)c3cc(F)c(-c4cc(O)cc5ccccc45)c(F)c3n2)CC1` [Ex. 226, 4-(6,8-difluoro-2-((1-(((2-hydroxy-2-methylpropyl)(methyl)amino)methyl)cyclopropyl)methoxy)-4-((1S,5R)-1-methyl-3,8-diazabicyclo[3.2.1]octan-3-yl)quinazolin-7-yl)naphthalen-2-ol], the IC50 in test [1] stood at 55.1 nM.
As to `NC1(COc2nc(N3CC4CCC(C3)N4)c3cc(Cl)c(-c4cc(O)cc5ccccc45)c(F)c3n2)CCC(O)C1` (stereo not drawn) [Example 108, 4-(2-((1-amino-3-hydroxycyclopentyl)methoxy)-4-(3,8-diazabicyclo[3.2.1]octan-3-yl)-6-chloro-8-fluoroquinazolin-7-yl)naphthalen-2-ol, TFA], in test [1], the IC50 is 3280 nM.
Consider `Oc1cc(-c2c(Cl)cc3c(N4CC5CCC(C4)N5)nc(OCC4CNC4)nc3c2F)c2ccccc2c1` [Example 109, 4-(2-(azetidin-3-ylmethoxy)-4-(3,8-diazabicyclo[3.2.1]octan-3-yl)-6-chloro-8-fluoroquinazolin-7-yl)naphthalen-2-ol, TFA], for which the IC50 in test [1] was found to be 2680 nM.
Regarding `Oc1cc(-c2c(Cl)cc3c(N4CC5CCC(C4)N5)nc(OCC4(F)CNC4)nc3c2F)c2ccccc2c1` [Example 110, 4-(4-(3,8-diazabicyclo [3.2.1]octan-3-yl)-6-chloro-8-fluoro-2-((3-fluoroazetidin-3-yl)methoxy)quinazolin-7-yl)naphthalen-2-ol, TFA], the IC50 in test [1] worked out at 770 nM.
Same read-out and setting: the result for `NC1(COc2nc(N3CC4CCC(C3)N4)c3cc(Cl)c(-c4cc(O)cc5ccccc45)c(F)c3n2)CCOC1` (stereo not drawn) [Example 111, 4-(2-((3-amino-tetrahydrofuran-3-yl)methoxy)-4-(3,8-diazabicyclo[3.2.1]octan-3-yl)-6-chloro-8-fluoroquinazolin-7-yl) naphthalen-2-ol, TFA] reads 2470 nM; that for `NC1(COc2nc(N3CC4CCC(C3)N4)c3cc(Cl)c(-c4cc(O)cc5ccccc45)c(F)c3n2)CCCC1` [Example 112, 4-(2-((1-aminocyclo-pentyl)methoxy)-4-(3,8-diazabicyclo[3.2.1]octan-3-yl)-6-chloro-8-fluoroquinazolin-7-yl)naphthalen-2-ol, TFA], 2730 nM; that for `C[C@]12CC[C@H](CN(c3nc(OCC4(N)CCOC4)nc4c(F)c(-c5cc(O)cc6ccccc56)c(F)cc34)C1)N2` (stereo partly drawn) [Example 113, 4-(2-((3-amino-tetrahydrofuran-3-yl)methoxy)-6,8-difluoro-4-((1S,5R)-1-methyl-3,8-diazabicyclo [3.2.1]octan-3-yl)quinazolin-7-yl)naphthalen-2-ol, TFA], 697 nM.
Turning to `C[C@]12CC[C@H](CN(c3nc(OCC4(N)CCC4)nc4c(F)c(-c5cc(O)cc6ccccc56)c(F)cc34)C1)N2` [Example 114, 4-(2-((1-aminocyclobutyl)methoxy)-6,8-difluoro-4-((1S,5R)-1-methyl-3,8-diazabicyclo[3.2.1]octan-3-yl)quinazolin-7-yl)naphthalen-2-ol, TFA], in test [1], the IC50 was 794 nM.
The same measure, in the same setting: the result for `C[C@]12CC[C@H](CN(c3nc(OC[C@H]4CCN(C5CCCCC5O)C4)nc4c(F)c(-c5cc(O)cc6ccccc56)c(Cl)cc34)C1)N2` (stereo partly drawn) [Example 120, 4-(6-chloro-8-fluoro-2-(((3S)-1-(2-hydroxy-cyclohexyl)pyrrolidin-3-yl)methoxy)-4-((1S,5R)-1-methyl-3,8-diazabicyclo [3.2.1]octan-3-yl)quinazolin-7-yl)naphthalen-2-ol, TFA] reads 1440 nM; that for `C#Cc1cccc2cc(O)cc(-c3c(F)cc4c(N5CC6(C)CCC(C)(C5)N6)nc(OC[C@@]56CCCN5C[C@H](F)C6)nc4c3F)c12` [Example 124, 4-(4-(1,5-dimethyl-3,8-diazabicyclo[3.2.1]octan-3-yl)-6,8-difluoro-2-(((2R,7aS)-2-fluorotetrahydro-1H-pyrrolizin-7a(5H)-yl)methoxy)quinazolin-7-yl)-5-ethynylnaphthalen-2-ol], 1.21 nM.
Regarding `C#Cc1cccc2cc(O)cc(-c3c(F)cc4c(N5C[C@]6(C)CC[C@](F)(C5)N6)nc(OC[C@@]56CCCN5C[C@H](F)C6)nc4c3F)c12` [compound 240, 4-(6,8-difluoro-4-((18,5S)-1-fluoro-5-methyl-3,8-diazabicyclo[3.2.1]octan-3-yl)-2-(((2R,7aS)-2-fluorotetrahydro-1H-pyrrolizin-7a(5H)-yl)methoxy)quinazolin-7-yl)-5-ethynylnaphthalen-2-ol], in test [1], the IC50 came to 135 nM.
